# Experimental data taken from patent publication US7250442B2, “Dihydroindol-2-one derivatives as steroid hormone nuclear receptor modulators” (Eli Lilly and Company, priority 2003, dated 2007).
# Molecular target: T1, human MR (Homo sapiens, UniProt P08235)
# T1 construct: The full length human MR gene is cloned from a human kidney or human brain cDNA library; made in house; host or cells: Sf9 insect cells (baculovirus, pAcHLT transfer vector)
# T1 sequence (P08235 1-984): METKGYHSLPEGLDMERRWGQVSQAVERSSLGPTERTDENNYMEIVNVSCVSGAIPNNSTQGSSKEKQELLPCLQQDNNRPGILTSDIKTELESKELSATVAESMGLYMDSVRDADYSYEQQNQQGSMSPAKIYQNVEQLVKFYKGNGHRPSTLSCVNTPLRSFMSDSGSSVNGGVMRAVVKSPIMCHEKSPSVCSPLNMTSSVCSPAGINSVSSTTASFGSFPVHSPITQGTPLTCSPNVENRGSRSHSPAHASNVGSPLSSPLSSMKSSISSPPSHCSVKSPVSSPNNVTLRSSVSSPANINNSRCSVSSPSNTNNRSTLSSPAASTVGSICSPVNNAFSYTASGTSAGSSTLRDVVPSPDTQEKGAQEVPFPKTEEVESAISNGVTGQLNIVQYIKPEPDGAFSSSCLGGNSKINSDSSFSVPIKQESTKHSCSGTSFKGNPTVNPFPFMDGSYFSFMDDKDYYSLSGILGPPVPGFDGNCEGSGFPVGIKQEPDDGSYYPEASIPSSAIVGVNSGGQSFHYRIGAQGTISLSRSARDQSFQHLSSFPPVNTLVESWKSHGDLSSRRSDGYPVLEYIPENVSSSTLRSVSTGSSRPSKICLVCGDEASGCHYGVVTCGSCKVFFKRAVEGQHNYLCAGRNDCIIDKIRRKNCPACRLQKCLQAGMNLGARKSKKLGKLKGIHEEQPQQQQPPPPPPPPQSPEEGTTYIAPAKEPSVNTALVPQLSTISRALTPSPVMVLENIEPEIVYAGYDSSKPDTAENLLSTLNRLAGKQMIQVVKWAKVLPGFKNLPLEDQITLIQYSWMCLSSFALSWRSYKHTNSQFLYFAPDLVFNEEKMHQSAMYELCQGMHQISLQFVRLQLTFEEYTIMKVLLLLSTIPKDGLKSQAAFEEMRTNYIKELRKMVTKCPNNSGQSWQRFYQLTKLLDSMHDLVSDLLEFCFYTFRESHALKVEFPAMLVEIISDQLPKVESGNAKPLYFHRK
# Assay: Mineralocorticoid Receptor Binding Assay ([3H]-aldosterone displacement)
# Settings: full length human MR expressed in Sf9 cells, 0.5 nM [3H]-aldosterone
# Procedure: Mineralocorticoid Receptor Binding Assay:
# The full length human MR gene is cloned from a human kidney or human brain cDNA library. Briefly, using synthetic oligonucleotide primers (Eli Lilly and Company, Indianapolis) directed to nucleotides 20-54 and 3700-3666 of the human MR, polymerase chain reaction (PCR) is performed under standard conditions using a human cDNA library. The PCR reaction is performed in a final volume of 50 μl containing about 1 μl of a 50× stock solution of polymerase; about 1 μl of a 50× stock solution of dNTP; about 5 μl of an appropriate PCR buffer; about 1 μl of each primer; about 5 μl of a H. kidney or H. brain cDNA library; and about 36 μl of water. The reaction is allowed to denature for about 30 seconds at 95 degrees Celsius, anneal for about 30 seconds at 55 degrees Celsius, and extend for about 5 minutes at 72 degrees Celsius, the sequence being repeated for a total of about 35 cycles. The desired PCR product (3.68 Kb) is confirmed by gel electrophoresis and subsequently cut from the gel and stored at about −20 degrees Celsius until extraction. To extract the cDNA product from the agarose gel, the QIAEX II Gel Extraction protocol (QIAGEN, Inc.) is employed according to the manufacturer's instructions. Following extraction, the MR cDNA is cloned into an appropriate cloning vector (Zero Blunt TOPO PCR Cloning Kit (Invitrogen, Inc.) and a pAcHLT-baculovirus transfer vector (B.D./Pharminogen), then expressed in SF9 insect cells, essentially according to manufacturer's instructions. Sf9 cells are grown at a scale where gram quantity cell pellets are obtained for subsequent use in the MR binding assay. Harvested cell pellets are lysed by repeated freeze-thaw cycles (about 4) in a suitable lysis buffer then centrifuged at about 1×10^3 G (with the supernatant being saved for future assays).
# MR binding assays are performed in a final total volume of about 250 μl containing about 20-25 μg of protein and 0.5 nM of [^3H]-aldosterone plus varying concentrations of test compound or vehicle. The assay binding buffer consists of 30 mM sodium molybdate, 30 mM of TRIS-HCl, 5 mM sodium phosphate, 5 mM sodium pyrophosphate, and about 10% glycerol, pH=7.5.
# Briefly, assays are prepared at RT in 96-well Falcon 3072 plates, each well containing 210 μl of binding buffer, 10 μl of [^3H]-aldosterone, 10 μl of test compound/vehicle, and 20 μl of the resuspended receptor protein extract. Incubations are carried out at 4 degrees Celsius with shaking for about 16 hours. 200 μl aliquots of each incubation are filtered onto Millipore HA 0.45 micron 96-well filter plates, pre-moistened with cold 30 mM TRIS-HCl. The filter plates are suctioned dry with vacuum and immediately washed 3× with cold 30 mM TRIS-HCl. The plates are then punched out and the amount of receptor-ligand complex is determined by liquid scintillation counting using 4 ml of Ready Protein Plus™ liquid scintillation cocktail.
# IC50 values (defined as the concentration of test compound required to decrease [^3H]-aldosterone binding by 50%) are then determined. Ki values for each respective test compound can then be calculated by application of the Cheng-Prusoff equation as described in Cheng et al., Relationship Between The Inhibition Constant (Ki) and The Concentration of Inhibitor Which Causes 50% Inhibition (IC50) of an Enzymatic Reaction, Biochem. Pharmacol., 22: 3099-31088; (1973).
row,Structure (SMILES),Ki [nM]
1,"CCCN1C(=O)C(c2cc(C)c(O)c(C)c2)(c2cc(C)c(O)c(C)c2)c2ccccc21 [Example 5, 3,3-Bis-(4-hydroxy-3,5-dimethyl-phenyl)-1-propyl-1,3-dihydro-indol-2-one]",≤ 500
2,"Cc1cc(C2(c3cc(C)c(O)c(C)c3)C(=O)N(c3ccccc3Cl)c3ccccc32)cc(C)c1O [Example 129, 1-(2-Chloro-phenyl)-3,3-bis-(4-hydroxy-3,5-dimethyl-phenyl)-1,3-dihydro-indol-2-one]",≤ 500
3,"Cc1cc(C2(c3cc(C)c(O)c(C)c3)C(=O)N(Cc3cccc(OC(F)(F)F)c3)c3ccccc32)cc(C)c1O [Example 8, 3,3-Bis-(4-hydroxy-3,5-dimethyl-phenyl)-1-(3-trifluoromethoxy-benzyl)-1,3-dihydro-indol-2-one]",≤ 500
4,"Cc1cc(C2(c3cc(C)c(O)c(C)c3)C(=O)N(c3ccccc3)c3ccccc32)cc(C)c1O [Example 126, 3,3-Bis-(4-hydroxy-3,5-dimethyl-phenyl)-1-phenyl-1,3-dihydro-indol-2-one]",≤ 500
5,"C=C(C)CN1C(=O)C(c2cc(C)c(O)c(C)c2)(c2cc(C)c(O)c(C)c2)c2ccccc21 [Example 106, 3,3-Bis-(4-hydroxy-3,5-dimethyl-phenyl)-1-(2-methyl-allyl)-1,3-dihydro-indol-2-one]",≤ 500
6,"Cc1cc(C2(c3cc(C)c(O)c(C)c3)C(=O)N(Cc3noc(C4CCC4)n3)c3ccccc32)cc(C)c1O [Example 86, 1-(5-Cyclobutyl-[1,2,4]oxadiazol-3-ylmethyl)-3,3-bis-(4-hydroxy-3,5-dimethyl-phenyl)-1,3-dihydro-indol-2-one]",≤ 500
7,"Cc1ccc2c(c1)C(c1cc(C)c(O)c(C)c1)(c1cc(C)c(O)c(C)c1)C(=O)N2Cc1ccccc1C [Example 21, 3,3-Bis-(4-hydroxy-3,5-dimethyl-phenyl)-5-methyl-1-(2-methyl-benzyl)-1,3-dihydro-indol-2-one]",≤ 500
8,"COc1ccc(-c2nc(CN3C(=O)C(c4cc(C)c(O)c(C)c4)(c4cc(C)c(O)c(C)c4)c4ccccc43)cs2)cc1 [Example 94, 3,3-Bis-(4-hydroxy-3,5-dimethyl-phenyl)-1-[2-(4-methoxy-phenyl)-thiazol-4-ylmethyl]-1,3-dihydro-indol-2-one]",≤ 500
9,"Cc1cc(C2(c3cc(C)c(O)c(C)c3)C(=O)N(Cc3cccc(C)c3F)c3ccccc32)cc(C)c1O [Example 70, 1-(2-Fluoro-3-methyl-benzyl)-3,3-bis-(4-hydroxy-3,5-dimethyl-phenyl)-1,3-dihydro-indol-2-one]",≤ 500
10,"Cc1cc(C2(c3cc(C)c(O)c(C)c3)C(=O)N(Cc3csc(-c4ccccc4)n3)c3ccccc32)cc(C)c1O [Example 91, 3,3-Bis-(4-hydroxy-3,5-dimethyl-phenyl)-1-(2-phenyl-thiazol-4-ylmethyl)-1,3-dihydro-indol-2-one]",≤ 500
11,"COc1ccc(N2C(=O)C(c3cc(C)c(O)c(C)c3)(c3cc(C)c(O)c(C)c3)c3ccccc32)cc1OC [Example 140, 1-(3,4-Dimethoxy-phenyl)-3,3-bis-(4-hydroxy-3,5-dimethyl-phenyl)-1,3-dihydro-indol-2-one]",≤ 500
12,"Cc1cc(C2(c3cc(C)c(O)c(C)c3)C(=O)N(Cc3ccc(-c4csnn4)cc3)c3ccccc32)cc(C)c1O [Example 84, 3,3-Bis-(4-hydroxy-3,5-dimethyl-phenyl)-1-(4-[1,2,3]thiadiazol-4-yl-benzyl)-1,3-dihydro-indol-2-one]",≤ 500
13,"CCOCCN1C(=O)C(c2cc(C)c(O)c(C)c2)(c2cc(C)c(O)c(C)c2)c2ccccc21 [Example 80, 1-(2-Ethoxy-ethyl)-3,3-bis-(4-hydroxy-3,5-dimethyl-phenyl)-1,3-dihydro-indol-2-one]",≤ 500
14,"Cc1cc(C2(c3cc(C)c(O)c(C)c3)C(=O)N(Cc3ccc(OC(F)(F)F)cc3)c3ccccc32)cc(C)c1O [Example 67, 3,3-Bis-(4-hydroxy-3,5-dimethyl-phenyl)-1-(4-trifluoromethoxy-benzyl)-1,3-dihydro-indol-2-one]",≤ 500
15,"Cc1cc(C2(c3cc(C)c(O)c(C)c3)C(=O)N(Cc3ccc([N+](=O)[O-])cc3)c3ccccc32)cc(C)c1O [Example 62, 3,3-Bis-(4-hydroxy-3,5-dimethyl-phenyl)-1-(4-nitro-benzyl)-1,3-dihydro-indol-2-one]",≤ 500
16,"Cc1cc(C2(c3cc(C)c(O)c(C)c3)C(=O)N(Cc3ccc(Cl)cc3F)c3ccccc32)cc(C)c1O [Example 83, 1-(4-Chloro-2-fluoro-benzyl)-3,3-bis-(4-hydroxy-3,5-dimethyl-phenyl)-1,3-dihydro-indol-2-one]",≤ 500
17,"Cc1cc(C2(c3cc(C)c(O)c(C)c3)C(=O)N(CCC3CCCCC3)c3ccccc32)cc(C)c1O [Example 110, 1-(2-Cyclohexyl-ethyl)-3,3-bis-(4-hydroxy-3,5-dimethyl-phenyl)-1,3-dihydro-indol-2-one]",≤ 500
18,"Cc1cc(C2(c3cc(C)c(O)c(C)c3)C(=O)N(Cc3cccc(F)c3F)c3ccccc32)cc(C)c1O [Example 66, 1-(2,3-Difluoro-benzyl)-3,3-bis-(4-hydroxy-3,5-dimethyl-phenyl)-1,3-dihydro-indol-2-one]",≤ 500
19,"Cc1cc(C2(c3cc(C)c(O)c(C)c3)C(=O)N(Cc3ccccc3Cl)c3cccc(Cl)c32)cc(C)c1O [Example 26, 4-Chloro-1-(2-chloro-benzyl)-3,3-bis-(4-hydroxy-3,5-dimethyl-phenyl)-1,3-dihydro-indol-2-one]",≤ 500
20,"Cc1ccc2c(c1)C(c1cc(C)c(O)c(C)c1)(c1cc(C)c(O)c(C)c1)C(=O)N2Cc1ccccc1C#N [Example 23, 2-[3,3-Bis-(4-hydroxy-3,5-dimethyl-phenyl)-5-methyl-2-oxo-2,3-dihydro-indol-1-ylmethyl]-benzonitrile]",≤ 500
21,"CCOC(=O)CN1C(=O)C(c2cc(C)c(O)c(C)c2)(c2cc(C)c(O)c(C)c2)c2ccccc21 [Example 109, [3,3-Bis-(4-hydroxy-3,5-dimethyl-phenyl)-2-oxo-2,3-dihydro-indol-1-yl]-acetic acid ethyl ester]",≤ 500
22,"Cc1cc(C2(c3cc(C)c(O)c(C)c3)C(=O)N(Cc3ccccc3Cl)c3ccccc32)cc(C)c1N (stereo not shown) [Example 35, 3-(4-Amino-3,5-dimethyl-phenyl)-1-(2-chloro-benzyl)-3-(4-hydroxy-3,5-dimethyl-phenyl)-1,3-dihydro-indol-2-one]",≤ 500
